We go through 6 sequences from EP1328811B1, “HCV MOSAIC ANTIGEN COMPOSITION” (MedMira Inc., priority 2000, dated 2005).

This test concerns anti-HCV antibodies. Nature of the test: Immunofiltration dotting assay of individual peptide-carrier conjugates (epitope mapping, Example 4). It counts as binding, human. Conditions: for reactivity with positive HCV samples: peptide conjugates, independently of the carrier used (BSA, HSA, KLH), peptide-carrier mass ratio 0.5; for reactivity with positive HCV samples / reactivity with HCV positive samples: HCV positive specimens n=10; for reactivity with negative HCV samples: peptide-carrier conjugates, HCV negative specimens n=10. The text has this: Several versions of antibody capture assay formats are available which differ mainly according to the type of solid supports employed and the detection technology used to determine the presence of immunological complexes formed by antigen-antibody recognition and binding. A commercially available immunofiltration dotting assay procedure (MedMira Inc., Halifax, N.S.) was used to test for immunoreactivity of the peptide-carrier conjugates based on colloidal gold detection using a nitrocellulose membrane as a solid support and is described below.
The HCV positive/negative specimens used to evaluate the mosaic antigen composition were provided by Dr. Spencer Lee (Director of Virology/Immunology, Microbiology Division, Department of Pathology and Laboratory Medicine) of the Queen Elizabeth II Health Sciences Center (Halifax, Nova Scotia). All specimens were tested with the Abbott's HCV test using the Axsym system platform. The Riba-II (Chiron) immunoblot assay was used as a confirmation test.
The maleimide-activated carrier molecules (KLH, BSA and HSA) were purchased from Pierce (Rockford, IL) and conjugated with cysteine containing peptides using a peptide-carrier mass ratio of 0.5 except mentioned otherwise.
Typically, the conjugates were passively adsorbed at a concentration of 1 mg/ml (bicarbonate buffer, 50 mM, pH 9.6) by applying one microliter of peptide-carrier conjugate on the nitrocellulose membrane. The antigen dotted membrane was air-dried. Before the test, the membrane was primed with 3 drops of washing buffer (Tris/phosphate/sodium chloride, pH 9.6 containing 0.25% Tween®20). The tests were performed as follows.
One drop of specimen serum was added to the membrane and after complete absorption of the sample, the membrane was washed with 4 drops of washing buffer. Four drops of protein A/colloidal gold solution (concentration corresponding to an optical density of 2 at 520 nm) was added to the membrane and the membrane was washed with 3 more drops of washing solution. The results were recorded visually within 5 minutes after completion of the test.
The identification of major linear epitopes was carried out using selected peptides corresponding to various regions of the HCV polyprotein and panels of well-characterized HCV positive and negative human sera. Additionally, a comparison of different carrier components was made based on a sensitivity/specificity assessment of various peptide-carrier conjugates.
Peptides were individually conjugated to three different carriers (BSA, HSA and KLH) and adsorbed passively on a nitrocellulose membrane support. Tests were performed by immunofiltration dotting assay format using a,commercially available flow-through assay platform (MedMira Inc., Halifax, N.S.).

In the case of “GQIVGGVYLLPRRGP [MDL-3, HCV core region antigenic peptide]”, the “reactivity with positive HCV samples” value is on record as “more consistent reactivity” and the “reactivity with negative HCV samples” value is listed as “No significant reactivity”.

For “GPRLGVRATRKTSERSQP [MDL-4, HCV core region antigenic peptide]”, the “reactivity with HCV positive samples” value reads like this: (peptide conjugated with BSA) “marginally reactive or unreactive”; (peptide conjugated with HSA) “marginally reactive or unreactive”; (peptide conjugated with KLH) “reactive with most HCV positive samples”.

In the case of “ATRKTSERSQPRGRRQPI [MDL-5, HCV core region antigenic peptide]”, the “reactivity with HCV positive samples” value (peptide conjugated with BSA) was “reactive with most HCV positive samples”, the “reactivity with HCV positive samples” value (peptide conjugated with HSA) is on record as “unreactive” and the “reactivity with HCV positive samples” value (peptide conjugated with KLH) was “reactive with most HCV positive samples”.

On to “KTKRNTNRRPQDVKF [MDL-2, HCV core region antigenic peptide]”, for which the “reactivity with positive HCV samples” value was “more consistent reactivity” and the “reactivity with negative HCV samples” value is “No significant reactivity”.

As for “MSTNPKPQRKTKRNTNRR [MDL-1, HCV core region antigenic peptide]”, the “reactivity with positive HCV samples” value is given as “more consistent reactivity” and the “reactivity with negative HCV samples” value was “No significant reactivity”.

For PKARQPEGRAWAQPG [MDL-6], the “reactivity with HCV positive samples” value is, setting by setting: (peptide conjugated with BSA) “reactive with most HCV positive samples”; (peptide conjugated with HSA) “reactive with most HCV positive samples”; (peptide conjugated with KLH) “poorly reactive”.
